# Patent US5593835A, “Methods and kits for RNA binding compounds” (President and Fellows of Harvard College, priority 1995, dated 1997)
# Like-named read-outs stand apart in the source and are kept apart here.
# Columns and labels:
# J6 RNA (SEQ ID NO:5) = assay: Fluorescence binding measurements, J6 RNA
# Experimental: (§1) The binding of tobramycin to two cloned RNAs X1 (SEQ ID NO:2) and J6 (SEQ ID NO:5), representative of both classes of consensus sequences, was measured using the fluorescence techniques described in the exemplification.
# (§2) Steady state fluorescence measurements were performed on a double beam fluorescence spectrometer (Perkin-Elmer Model 512, Norwalk, Conn.). The excitation wavelength was 341 nm. All measurements were done at 20° C. in 140 mM NaCl, 5 mM KCl, 1 mM CaCl2, 1 mM MgCl2, and 20 mM HEPES, pH 7.4. The KD of the PYT and the RNA aptamer was calculated by the curve fitting of the fluorescence intensity as a function of RNA concentration, using the following equation
# (§3) Competition binding measurements of antibiotics with RNA and PYT were performed at constant concentrations of PYT and RNA by monitoring fluorescence intensity changes as a function of changing concentrations of the antibiotics (a standard fluorescence curve). The KD s for the antibiotics were calculated by the curve fitting of the fluorescence intensity of PYT as a function of antibiotic concentration, using the following equation: […]
# [1] = target: W13 RNA having SEQ ID NO:1; assay: Fluorescence (PYT quenching) titration and competition binding to W13 RNA; conditions: fluorescence; competition with PYT (150 nM PYT, 300 nM W13), 20° C., pH 7.4; N.B. = no measurable binding
# Experimental: To study the binding behavior of clone W13, a fluorescently labelled pyrene-conjugated tobramycin derivative "PYT" was prepared.
# For competitive binding studies, different concentrations of antibiotic (glucosamine (0-10 mM), erythromycin (0-6 mM), gentamicin C (0-700 μM), or neomycin B (0-650 μM)), were mixed with constant concentrations of RNA (300 nM W13) and PYT (150 nM), in Binding buffer (140 mM NaCl, 5 mM KCl, 1 mM MgCl2, 1 mM CaCl2, 20 mM HEPES, pH 7.4), 750 μl total volume, for 1-5 min. at 20° C. in a semimicro-cell cuvette. The fluorescence was measured on a Perkin-Elmer Model 512 double beam fluorescence spectrophotometer. The excitation wavelength used was 341 nm. The intensities of fluorescence emission at 380 nm were used to calculate dissociation constants. Generally 8 to 10 points were used for calculation.
# as §2
# (assuming a 1:1 complex): I=Io +0.5Δε ([PYT]o
# -(([PYT]o +[RNA]o KI)^2 -4[PYT]o [RNA]o)^0.5)
# Competition binding measurements of antibiotics with RNA and PYT were performed at constant concentrations of PYT and RNA by monitoring fluorescence intensity changes as a function of changing concentrations of the antibiotics (a standard fluorescence curve). The KD s for the antibiotics were calculated by the curve fitting of the fluorescence intensity of PYT as a function of antibiotic concentration, using the following equation:
# I=Io +Δε[PYT.circle-solid.RNA]
# [PYT.circle-solid.RNA]=0.5(([PYT]o +[RNA]o)([RNA]o
# +KD)+KI ([T]o +[RNA]o +KD)-((([PYT]o
# +[RNA]o)([RNA]o +KD)+KI ([T]o +[RNA]o
# +KD))^2 -4([RNA]o +KD) [PYT]o [RNA]o
# ([RNA]o +KD))^0.5)([RNA]o +KD) (equation 2)
# KD and KI are the dissociation constants for the antibiotic and PYT respectively.
# [T]o is the total concentration of antibiotic added. Measurements were taken at least twice for each measured KD.
# [2] = target: J6a1 RNA (SEQ ID NO: 5), synthetically derived from the predicted structures; assay: Fluorescence binding measurements, J6a1 RNA
# Experimental: as §1
# (§4) *synthetically derived from the predicted structures
# as §2, §3
# [3] = target: X1s1 RNA (SEQ ID NO: 3), synthetically derived from the predicted structures; assay: Fluorescence binding measurements, X1s1 RNA
# Experimental: as §1, §4, §2, §3
# [4] = target: clone W13 RNA (SEQ ID NO:1), tobramycin-selected RNA aptamer; assay: Equilibrium dialysis binding to clone W13 RNA; conditions: competition studies with 3H-acetyl tobramycin; read-out: dissociation constant
# Experimental: One of these RNAs, clone W13 (SEQ ID NO:1) was chosen for quantitative studies to determine the specificity of its binding to RNA. […] The dissociation constant for tobramycin was determined to be 3 μM by competition studies with ^3 H-acetyl tobramycin. These values are close to those measured for tobramycin and ^3 H-acetyl tobramycin binding to ribosomal targets (LeGoffic et al. (1979) Eur. J. Biochem. 102: 73-81).
# Equilibrium dialysis measurements were performed according to the procedure of Lorsch et al. (Biochem. (1994) 33: 973-982).
# [5] = K1 - high affinity, read-out: Dissociation Constants K1(TOB)
# [6] = K2 - low affinity, read-out: Dissociation Constants K2(TOB)
smiles,measurement,setting,value
NC[C@H]1O[C@H](O[C@H]2[C@H](O)[C@@H](O[C@H]3O[C@H](CO)[C@@H](O)[C@H](N)[C@H]3O)[C@H](N)C[C@@H]2N)[C@H](N)C[C@@H]1O [tobramycin],Kd,J6 RNA (SEQ ID NO:5); [5],0.002 ± 0.001 µM
same,Kd,J6 RNA (SEQ ID NO:5); [6],6 ± 0.4 µM
same,Kd,[1],4.3 ± 0.7 µM
same,Kd,[2]; [5],0.009 ± 0.003 µM
same,Kd,[2]; [6],2.7 ± 0.3 µM
same,Kd,[3]; [5],0.012 ± 0.005 µM
same,Kd,[3]; [6],13.2 ± 0.5 µM
same,Kd,[4],3 µM
